Our source for the Ki and inhibition values is patent US9181236B2, “2-spiro-substituted iminothiazines and their mono-and dioxides as bace inhibitors, compositions and their use” (Merck Sharp & Dohme Corp., priority 2011, dated 2015).

Molecules are shown by their SMILES.

The target of experiment [1] is purified human autoBACE-2 (Homo sapiens (Human), UniProt Q9Y5Z0). The experiment is described as follows: BACE-2 Assay (BACE-HTRF assay). Format: biochemical. The conditions noted are these: Ki calculated from IC50 using the Cheng-Prusoff equation; read-out: BACE2 Ki. The method, then:
Inhibitor IC50s at purified human autoBACE-2 are determined in a time-resolved endpoint proteolysis assay that measures hydrolysis of the QSY7-[…]-Eu-amide FRET peptide substrate (BACE-HTRF assay). […] DMSO is present at 5% final concentration in the assay. Following laser excitation of sample wells at 320 nm, the fluorescence signal at 620 nm is collected for 400 ms following a 50 μs delay on a RUBYstar HTRF plate reader (BMG Labtechnologies). Raw RFU data is normalized to maximum (1.0 nM BACE/DMSO) and minimum (no enzyme/DMSO) RFU values. […] The Ki values are calculated from the IC50 using the Cheng-Prusoff equation.

Experiment [2] addresses soluble human BACE1 catalytic domain (Homo sapiens (Human), UniProt P56817). The experiment is described as follows: BACE1 HTRF FRET Assay. It is filed as biochemical. The conditions noted are these: for Ki: Ki calculated from IC50 using the Cheng-Prusoff equation. The text has this:
A homogeneous time-resolved FRET assay can be used to determine IC50 values for inhibitors of the soluble human BACE1 catalytic domain. This assay monitors the increase of 620 nm fluorescence that resulted from BACE1 cleavage of an APPswedish APP^swe mutant peptide FRET substrate (QSY7-[…]-Europium-amide). This substrate contains an N-terminal QSY7 moiety that serves as a quencher of the C-terminal Europium fluorophore (620 nm Em). In the absence of enzyme activity, 620 nm fluorescence is low in the assay and increased linearly over 3 hours in the presence of uninhibited BACE1 enzyme Inhibition of BACE1 cleavage of the QSY7-APP^swe-Eu substrate by inhibitors is manifested as a suppression of 620 nm fluorescence.
Reactions are initiated by addition of 10 μl of 600 nM QSY7-APP^swe-Eu substrate (200 nM final) to give a final reaction volume of 30 μl in a 384 well Nunc HTRF plate. The reactions are incubated at 30° C. for 1.5 hours. The 620 nm fluorescence is then read on a Rubystar HTRF plate reader (BMG Labtechnologies) using a 50 millisecond delay followed by a 400 millisecond acquisition time window Inhibitor IC50 values are derived from non-linear regression analysis of concentration response curves.

Sequence of soluble human BACE1 catalytic domain (P56817 75-416): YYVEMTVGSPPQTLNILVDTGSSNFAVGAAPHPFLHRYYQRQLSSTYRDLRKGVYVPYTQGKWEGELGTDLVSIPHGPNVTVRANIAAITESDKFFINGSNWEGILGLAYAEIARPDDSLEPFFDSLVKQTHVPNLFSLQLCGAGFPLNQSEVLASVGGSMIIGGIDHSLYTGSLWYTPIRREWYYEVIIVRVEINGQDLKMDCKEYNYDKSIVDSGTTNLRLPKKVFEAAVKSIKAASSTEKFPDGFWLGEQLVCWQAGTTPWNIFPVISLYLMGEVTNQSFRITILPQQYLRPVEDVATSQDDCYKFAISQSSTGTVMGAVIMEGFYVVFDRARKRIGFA
Sequence of purified human autoBACE-2 (Q9Y5Z0 63-473 limits assumed): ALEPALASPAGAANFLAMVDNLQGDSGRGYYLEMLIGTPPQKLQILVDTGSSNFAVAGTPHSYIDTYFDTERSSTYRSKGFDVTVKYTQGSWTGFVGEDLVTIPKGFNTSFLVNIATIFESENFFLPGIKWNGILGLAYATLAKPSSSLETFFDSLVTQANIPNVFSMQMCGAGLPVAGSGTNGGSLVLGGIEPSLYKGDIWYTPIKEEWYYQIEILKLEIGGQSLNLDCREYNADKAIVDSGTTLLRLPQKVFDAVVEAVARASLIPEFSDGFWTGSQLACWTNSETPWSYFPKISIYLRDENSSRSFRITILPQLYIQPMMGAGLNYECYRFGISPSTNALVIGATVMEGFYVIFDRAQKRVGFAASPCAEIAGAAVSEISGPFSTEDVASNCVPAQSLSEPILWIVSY

Usually Ki stands for the equilibrium dissociation constant of an inhibitor or competing ligand from its target. For `C[C@@]1(c2cc(NC(=O)c3ccc(C(F)(F)F)cn3)ccc2F)CS(=O)(=O)C2(CCOCC2)C(=N)N1` [Example 34], the Ki in experiment [1] is below 50 nM; in experiment [2], 19.8 nM.

Regarding `C[C@@]1(c2sc(Br)cc2Cl)CS(=O)(=O)C2(CCCCC2)C(=N)N1`, the Ki was 715 nM in experiment [1] and 2610 nM in experiment [2].

`COc1ccc(C(=O)Nc2ccc(F)c([C@]3(C)CS(=O)(=O)C4(CCOCC4)C(=N)N3)c2)nc1` [Example 35]: the Ki is below 20 nM in experiment [1] and 16.4 nM in experiment [2].

Regarding `C[C@@]1(c2cc(NC(=O)c3ccc(F)cn3)ccc2F)CS(=O)(=O)C2(CCC2)C(=N)N1` [Example 8], the Ki is 4.2 nM in experiment [1] and 17.1 nM in experiment [2].

Regarding `C[C@@]1(c2cc(NC(=O)c3ccc(Cl)cn3)ccc2F)CS(=O)(=O)C2(CCC2)C(=N)N1` [Example 6], the Ki was 1.9 nM in experiment [1] and 8 nM in experiment [2].

With `C[C@@]1(c2sc(-c3ccnc(-c4ccccc4)c3)cc2Cl)CS(=O)(=O)[C@]2(CCOC2)C(=N)N1` [Example 62n], the results for the inhibitory constant (Ki) in experiment [1] and in experiment [2] were below 20 nM and 313 nM, respectively.

Regarding `C[C@@]1(c2sc(-c3cncc(C#N)c3)cc2Cl)CS(=O)(=O)C2(CCCC2)C(=N)N1` [Example 42], the Ki is 3.4 nM in experiment [1] and 18.3 nM in experiment [2].

Turning to `C[C@@]1(c2sc(C#CC3CCCC3)cc2Cl)CS(=O)(=O)C2(CCC2)C(=N)N1` [Example 77b], the Ki is below 50 nM in experiment [1] and 110 nM in experiment [2].

Consider `Cc1cccc(NC(=O)c2cc(Cl)c([C@]3(C)CS(=O)(=O)C4(CC4)C(=N)N3)s2)n1` [Example 79d], for which the inhibitory constant (Ki) in experiment [1] was below 20 nM; in experiment [2] it was 30 nM.

For the molecule `C[C@@]1(c2sc(-c3ccnc(-c4ccsc4)c3)cc2Cl)CS(=O)(=O)[C@@]2(CCOC2)C(=N)N1` [Example 63n], the inhibitory constant (Ki) in experiment [1] is below 20 nM; in experiment [2] it was 428 nM.

As for `C[C@@]1(c2cc(NC(=O)c3ccc(F)cn3)ccc2F)CS(=O)(=O)C2(CCCC2)C(=N)N1` [Example 13], the values for the Ki in experiment [1] and in experiment [2] were 0.3 nM and 3.1 nM, respectively.

For the molecule `C[C@@]1(c2cc(NC(=O)c3ccc(F)cn3)ccc2F)CS(=O)(=O)C2(CCCCC2)C(=N)N1` [Example 25], the inhibitory constant (Ki) in experiment [1] is 4.4 nM; in experiment [2] it was 32 nM.

In the case of `C[C@@]1(c2cc([N+](=O)[O-])ccc2F)CS(=O)(=O)[C@@]2(CCOC2)C(=N)N1`, the Ki is 2670 nM in experiment [1] and 6120 nM in experiment [2].

`C[C@@]1(c2cc(NC(=O)c3ccc(Cl)cn3)ccc2F)CS(=O)(=O)[C@@]2(CCOC2)C(=N)N1` [Example 63c]: the Ki in experiment [1] is 1.3 nM; in experiment [2], 5.9 nM.

For `C[C@@]1(c2sc(-c3ccnc(-c4ccco4)c3)cc2Cl)CS(=O)(=O)[C@]2(CCOC2)C(=N)N1` [Example 62l], the results for the Ki in experiment [1] and in experiment [2] were 2.2 nM and 45.3 nM, respectively.

`C[C@@]1(c2sc(-c3cncc(C#N)c3)cc2Cl)CS(=O)(=O)C2(CCOCC2)C(=N)N1` [Example 50]: the Ki was below 50 nM in experiment [1] and 130 nM in experiment [2].

For the molecule `CCc1cccc(NC(=O)c2cc(Cl)c([C@]3(C)CS(=O)(=O)C4(CC4)C(=N)N3)s2)n1` [Example 79], the Ki in experiment [1] was below 20 nM; in experiment [2], 88 nM.

`C[C@@]1(c2cc(N)ccc2F)CS(=O)(=O)C2(CC2)C(=N)N1`: the Ki was 1860 nM in experiment [1] and 4900 nM in experiment [2].

`C[C@@]1(c2cc(NC(=O)c3ccc(Cl)cn3)ccc2F)CS(=O)(=O)C2(CCCC2)C(=N)N1` [Example 12]: the Ki in experiment [1] is 0.3 nM; in experiment [2], 1.3 nM.

Take `C[C@@]1(c2cc(NC(=O)c3ncc(F)cc3F)ccc2F)CS(=O)(=O)C2(CCC2)C(=N)N1` [Example 9]: the figures for the Ki in experiment [1] and in experiment [2] were 2.5 nM and 12.6 nM, respectively.

Regarding `COc1cnc(C(=O)Nc2ccc(F)c([C@]3(C)CS(=O)(=O)C4(CCCCC4)C(=N)N3)c2)cn1` [Example 27], the inhibitory constant (Ki) in experiment [1] is below 50 nM; in experiment [2] it was 36 nM.

In the case of `COc1cccc2cc(-c3cc(Cl)c([C@]4(C)CS(=O)(=O)[C@@]5(CCOC5)C(=N)N4)s3)[nH]c12` [Example 63f], the Ki in experiment [1] was 1.5 nM; in experiment [2], 14.2 nM.

Take `C[C@@]1(c2cc(NC(=O)c3cn4ncsc4n3)ccc2F)CS(=O)(=O)C2(CCCC2)C(=N)N1` [Example 19]: the Ki is below 20 nM in experiment [1] and 18.4 nM in experiment [2].

Consider `COc1cccc2cc(-c3cc(Cl)c([C@]4(C)CS(=O)(=O)C5(CCOCC5)C(=N)N4)s3)[nH]c12` [Example 48], for which the Ki is 2 nM in experiment [1] and 19.8 nM in experiment [2].

On to `C[C@@]1(c2cc(N)ccc2F)CS(=O)(=O)[C@@]2(CCOC2)C(=N)N1`, for which the Ki in experiment [1] is 3820 nM. In experiment [2] (read-out: BACE1 % Inh. at 10 μM), the inhibition at 10 µM came to 38%.

Consider `C[C@@]1(c2sc(-c3cncc(-c4ncco4)c3)cc2Cl)CS(=O)(=O)[C@@]2(CCOC2)C(=N)N1` [Example 63h], for which the values for the Ki in experiment [1] and in experiment [2] were below 20 nM and 107 nM, respectively.

`C[C@@]1(c2sc(-c3cncc(-c4ncco4)c3)cc2Cl)CS(=O)(=O)[C@]2(CCOC2)C(=N)N1` [Example 62h]: the inhibition constant (Ki) in experiment [1] is 2.8 nM; in experiment [2], 56.7 nM.

On to `C[C@@]1(c2sc(C#CC3(c4ccccc4)CCCC3)cc2Cl)CS(=O)(=O)C2(CCC2)C(=N)N1` [Example 77], for which the Ki is below 50 nM in experiment [1] and 2550 nM in experiment [2].

In the case of `C[C@@]1(c2cc(NC(=O)c3ccc(C#N)cn3)ccc2F)CS(=O)(=O)[C@]2(CCOC2)C(=N)N1` [Example 62e], the Ki was below 20 nM in experiment [1] and 6.1 nM in experiment [2].

With `COc1cnc(C(=O)Nc2ccc(F)c([C@]3(C)CS(=O)(=O)[C@]4(CCOC4)C(=N)N3)c2)cn1` [Example 62], the Ki in experiment [1] is below 20 nM; in experiment [2], 25.4 nM.

For `C[C@@]1(c2cc(NC(=O)c3ccc(C#N)cn3)ccc2F)CS(=O)(=O)[C@@]2(CCOC2)C(=N)N1` [Example 63d], the figures for the Ki in experiment [1] and in experiment [2] were below 20 nM and 5.2 nM, respectively.

On to `C[C@@]1(c2sc(Br)cc2Cl)CS(=O)(=O)C2(CC2)C(=N)N1`, for which the Ki in experiment [1] is 465 nM; in experiment [2], 912 nM.

Take `COc1ccc(C(=O)Nc2ccc(F)c([C@]3(C)CS(=O)(=O)C4(CCC4)C(=N)N3)c2)nc1` [Example 10]: the Ki in experiment [1] was below 20 nM; in experiment [2], 10.7 nM.

With `C[C@@]1(c2sc(-c3cccc(-c4nnco4)c3)cc2Cl)CS(=O)(=O)C2(CCC2)C(=N)N1` [Example 61a], the Ki is below 50 nM in experiment [1] and 18.6 nM in experiment [2].

Regarding `C[C@@]1(c2cc(NC(=O)c3ccc(F)cn3)ccc2F)CS(=O)(=O)C2(CC(O)C2)C(=N)N1` (some centres unmarked) [Example 74], the Ki in experiment [1] is 3.8 nM; in experiment [2], 21.8 nM.

Turning to `C[C@@]1(c2cc(Br)ccc2F)CS(=O)(=O)C2(CCCC2)C(=N)N1`, the inhibition constant Ki in experiment [1] is 935 nM. Moreover, the inhibition at 1 µM in experiment [2] (read-out: BACE1 % Inh. at 1 μM) is 42%.

For the molecule `COc1ccc(C(=O)Nc2ccc(F)c([C@]3(C)CS(=O)(=O)C4(CCCCC4)C(=N)N3)c2)nc1` [Example 26], the Ki in experiment [1] was below 20 nM; in experiment [2] it was 37 nM.

Consider `CC(C)(C)C#Cc1cc(Cl)c([C@]2(C)CS(=O)(=O)C3(CCC3)C(=N)N2)s1` [Example 77a], for which the Ki in experiment [1] was below 20 nM; in experiment [2], 165 nM.

On to `C[C@@]1(c2cc([N+](=O)[O-])ccc2F)CS(=O)(=O)[C@]2(CCOC2)C(=N)N1`, for which the inhibition constant Ki in experiment [1] is 2080 nM; in experiment [2], 6690 nM.

On to `C[C@@]1(c2cc(NC(=O)c3ccc(C(F)(F)F)cn3)ccc2F)CS(=O)(=O)[C@]2(CCOC2)C(=N)N1` [Example 62d], for which the Ki in experiment [1] was below 50 nM; in experiment [2], 17 nM.

Consider `C[C@@]1(c2cc(NC(=O)c3ccc(F)cn3)ccc2F)CS(=O)(=O)C2(CCC(O)C2)C(=N)N1` (single isomer, unassigned) [Example 76b], for which the Ki in experiment [1] was below 50 nM; in experiment [2], 104 nM.

Take `C[C@@]1(c2sc(-c3cncc(C#N)c3)cc2Cl)CS(=O)(=O)C2(CCCCC2)C(=N)N1` [Example 46]: the Ki in experiment [1] is below 50 nM; in experiment [2], 114 nM.

With `C[C@@]1(c2cc(NC(=O)c3ccc(C(F)(F)F)cn3)ccc2F)CS(=O)(=O)C2(CCCCC2)C(=N)N1` [Example 29], the Ki in experiment [1] is below 50 nM; in experiment [2], 23.3 nM.

`COc1ccc(C(=O)Nc2ccc(F)c([C@]3(C)CS(=O)(=O)[C@]4(CCOC4)C(=N)N3)c2)nc1` [Example 62a]: the Ki in experiment [1] is below 20 nM; in experiment [2], 30.3 nM.

In the case of `COc1cccc2cc(-c3cc(Cl)c([C@]4(C)CS(=O)(=O)C5(CCC5)C(=N)N4)s3)[nH]c12` [Example 58], the Ki in experiment [1] is 1 nM; in experiment [2], 7.7 nM.

With `COc1cnc(C(=O)Nc2ccc(F)c([C@]3(C)CS(=O)(=O)C4(CCC4)C(=N)N3)c2)cn1` [Example 7], the figures for the Ki in experiment [1] and in experiment [2] were below 50 nM and 11.7 nM, respectively.
